Assay results from publication PMC4648043, “Development of Small-Molecule Trypanosoma brucei N-Myristoyltransferase Inhibitors: Discovery and Optimisation of a Novel Binding Mode” (Chemmedchem, 2015).
Read-outs that look alike come from different tables or passages of the source.

What was measured:
[1] = tested on: hMRC5; test: MRC5 cell assay; format: cell-based; details: Homo sapiens, mean of two or more determinations
[2] = biological target: T1, TbNMT (Trypanosoma brucei brucei, UniProt Q388H8); test: biochemical; format: biochemical; details: for LE TbNMT (ligand efficiency): calculated as 0.6 ln(IC50)/(heavy atom count); for IC50: mean of two or more determinations
T1 sequence (Q388H8 1-446): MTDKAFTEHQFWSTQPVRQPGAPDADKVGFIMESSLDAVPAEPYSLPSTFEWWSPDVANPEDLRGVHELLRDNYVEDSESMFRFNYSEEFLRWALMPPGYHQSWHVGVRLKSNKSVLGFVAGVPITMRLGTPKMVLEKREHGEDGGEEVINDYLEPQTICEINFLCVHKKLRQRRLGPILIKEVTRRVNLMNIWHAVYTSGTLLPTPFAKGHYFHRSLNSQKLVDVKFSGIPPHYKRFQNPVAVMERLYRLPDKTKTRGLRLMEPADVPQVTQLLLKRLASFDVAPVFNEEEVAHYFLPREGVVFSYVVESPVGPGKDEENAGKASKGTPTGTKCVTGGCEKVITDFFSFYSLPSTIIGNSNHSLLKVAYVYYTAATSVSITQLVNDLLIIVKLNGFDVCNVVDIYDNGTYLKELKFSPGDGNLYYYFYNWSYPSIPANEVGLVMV
Method: (§1) Parasite and NMT assays: These were carried out as described previously.[8–10]

[3] = tested on: T. brucei; test: T. brucei parasite growth assay; format: cell-based, Trypanosoma brucei; details: Trypanosoma brucei; mean of two or more determinations
Method: as §1

[4] = biological target: T2, hNMT (Homo sapiens, UniProt P30419); test: human NMT enzyme inhibition assay; format: biochemical; details: mean of two or more determinations
T2 sequence (P30419 1-496): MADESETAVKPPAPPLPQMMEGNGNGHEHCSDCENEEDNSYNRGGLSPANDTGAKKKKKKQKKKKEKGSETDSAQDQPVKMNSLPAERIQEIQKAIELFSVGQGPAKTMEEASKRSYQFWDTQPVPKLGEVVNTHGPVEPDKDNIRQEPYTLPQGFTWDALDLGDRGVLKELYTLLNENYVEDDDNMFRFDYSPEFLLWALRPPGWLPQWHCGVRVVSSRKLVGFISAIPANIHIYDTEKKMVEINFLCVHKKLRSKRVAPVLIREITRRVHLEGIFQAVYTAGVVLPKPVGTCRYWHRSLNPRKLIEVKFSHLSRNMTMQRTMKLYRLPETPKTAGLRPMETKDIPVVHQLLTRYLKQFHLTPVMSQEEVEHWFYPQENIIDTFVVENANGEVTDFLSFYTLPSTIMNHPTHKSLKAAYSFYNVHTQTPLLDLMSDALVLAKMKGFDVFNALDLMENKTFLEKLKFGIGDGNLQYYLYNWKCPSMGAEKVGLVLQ
Method: as §1

Row | SMILES | LE TbNMT (ligand efficiency) [2] | IC50 ([2]; read-out: IC50 TbNMT) | EC50 [3] | IC50 [4] | IC50 ([2]; IC50 TbNMT) | improvement in potency at TbNMT ([2]; relative to parent/starting compound) | EC50 [1]
1 | COc1cc(C2SCC(=O)N2Cc2ccccc2)ccc1O (stereo not drawn) [Compound 1, 3-Benzyl-2-(4-hydroxy-3-methoxyphenyl)thiazolidin-4-one] | 0.29 | 22 µM | > 50 µM | 28 µM |  |  | > 50 µM
2 | O=C1CSC(c2ccccn2)N1c1ccccc1 (stereo not drawn) [Compound 9] | 0.35 | 31 µM |  | 66 µM |  |  | 
3 | O=C(CCN1C(=O)COc2ccccc21)N1CCCC1 [Compound 17, 4-(3-Oxo-3-(pyrrolidin-1-yl)propyl)-2H-benzo[b][1,4]oxazin-3(4H)-one] | 0.34 | 11 µM |  | > 100 µM |  |  | 
4 | CCOC(=O)C(C)N1C(=O)COc2ccccc21 (stereo not drawn) [Compound 15, Ethyl 2-(3-oxo-2H-benzo[b][1,4]oxazin-4(3H)-yl)propanoate] |  | > 100 µM |  | > 100 µM |  |  | 
5 | O=C1CSC(c2ccccn2)N1c1cccc(Cl)c1 (stereo not drawn) [Compound 7] | 0.36 | 13 µM |  | > 50 µM |  |  | 
6 | COc1cc(C2SCC(=O)N2Cc2ccco2)ccc1O (stereo not drawn) [Compound 2, 3-(Furan-2-ylmethyl)-2-(4-hydroxy-3-methoxyphenyl)thiazolidin-4-one] | 0.33 | 7.6 µM | > 50 µM | > 100 µM |  |  | 
7 | COc1cccc(C2SCC(=O)N2Cc2ccco2)c1 (stereo not drawn) [Compound 5, 3-(Furan-2-ylmethyl)-2-(3-methoxyphenyl)thiazolidin-4-one] |  | > 100 µM |  | > 100 µM |  |  | 
8 | Cc1cc(CN2C(=O)COc3ccccc32)no1 [Compound 23, 4-((5-Methylisoxazol-3-yl)methyl)-2H-benzo[b][1,4]oxazin-3(4H)-one] | 0.43 | 2.9 µM |  | > 100 µM |  |  | 
9 | CCN1C(=O)CSC1c1ccc(O)c(OC)c1 (stereo not drawn) [Compound 3, 3-Ethyl-2-(4-hydroxy-3-methoxyphenyl)thiazolidin-4-one] |  | > 100 µM |  | > 100 µM |  |  | 
10 | O=C(CN1C(=O)COc2ccccc21)N1CCCC1 [Compound 21, 4-(2-Oxo-2-(pyrrolidin-1-yl)ethyl)-2H-benzo[b][1,4]oxazin-3(4H)-one] |  | > 100 µM |  |  |  |  | 
11 | COc1cc(C2SCC(=O)N2c2ccccn2)ccc1O (stereo not drawn) [Compound 4, 2-(4-Hydroxy-3-methoxyphenyl)-3-(pyridin-2-yl)thiazolidin-4-one] |  | > 100 µM |  | > 100 µM |  |  | 
12 | O=C1CSC(c2ccccc2)N1Cc1ccccn1 (stereo not drawn) [Compound 12, 2-Phenyl-3-(pyridin-2-ylmethyl)thiazolidin-4-one] | 0.39 | 5.9 µM | > 50 µM | > 100 µM |  |  | 
13 | O=C1CSC(c2ccccn2)N1c1ccc(Cl)cc1 (stereo not drawn) [Compound 10, 3-(4-Chlorophenyl)-2-(pyridin-2-yl)thiazolidin-4-one] |  | > 100 µM | > 50 µM | > 100 µM |  |  | 
14 | CNC(=O)CN1C(=O)COc2ccccc21 [Compound 20, N-Methyl-2-(3-oxo-2H-benzo[b][1,4]oxazin-4(3H)-yl)acetamide] |  | > 100 µM |  | > 100 µM |  |  | 
15 | Cc1noc(CN2C(=O)COc3ccccc32)n1 [Compound 27, 4-((3-Methyl-1,2,4-oxadiazol-5-yl)methyl)-2H-benzo[b][1,4]oxazin-3(4H)-one] |  | > 100 µM |  | > 100 µM |  |  | 
16 | O=C1CSC(c2ccccn2)N1c1ccccc1Cl (stereo not drawn) [Compound 11, 3-(2-Chlorophenyl)-2-(pyridin-2-yl)thiazolidin-4-one] | 0.32 | 32 µM | > 50 µM | > 100 µM |  |  | 
17 | O=C1COc2ccccc2N1Cc1nc2ccccc2o1 [Compound 22, 4-(Benzo[d]oxazol-2-ylmethyl)-2H-benzo[b][1,4]oxazin-3(4H)-one] | 0.31 | 24 µM |  | > 100 µM |  |  | 
18 | O=C1CSC(c2ccccn2)N1c1ccc2ccccc2c1 (stereo not drawn) [Compound 8] |  | > 100 µM |  | > 100 µM |  |  | 
19 | O=C1COc2ccccc2N1Cc1ccncc1 [Compound 26, 4-(Pyridin-4-ylmethyl)-2H-benzo[b][1,4]oxazin-3(4H)-one] |  | > 100 µM |  | > 100 µM |  |  | 
20 | O=C1COc2ccccc2N1Cc1ccccn1 [Compound 25, 4-(Pyridin-2-ylmethyl)-2H-benzo[b][1,4]oxazin-3(4H)-one] | 0.38 | 22 µM |  | > 100 µM |  |  | 
21 | COc1cc(C2SCC(=O)N2Cc2ccccn2)ccc1O (stereo not drawn) [Compound 13, 2-(4-Hydroxy-3-methoxyphenyl)-3-(pyridin-2-ylmethyl)thiazolidin-4-one] | 0.42 |  | 14 µM | > 100 µM | 0.27 µM | 20 fold | 
22 | CN(C)C(=O)CCN1C(=O)COc2ccccc21 [Compound 18, N,N-Dimethyl-3-(3-oxo-2H-benzo[b][1,4]oxazin-4(3H)-yl)propanamide] |  | 50 µM |  | > 100 µM |  |  | 
23 | Cc1nc(CN2C(=O)COc3ccccc32)cs1 [Compound 24, 4-((2-Methylthiazol-4-yl)methyl)-2H-benzo[b][1,4]oxazin-3(4H)-one] | 0.33 | 44 µM |  | > 100 µM |  |  | 
24 | CCOC(=O)CCN1C(=O)COc2ccccc21 [Compound 16, Ethyl 3-(3-oxo-2H-benzo[b][1,4]oxazin-4(3H)-yl)propanoate] | 0.38 | 13 µM |  | > 100 µM |  |  | 
25 | CN(C)C(=O)CN1C(=O)COc2ccccc21 [Compound 19, N,N-Dimethyl-2-(3-oxo-2H-benzo[b][1,4]oxazin-4(3H)-yl)acetamide] |  | > 100 µM |  | > 100 µM |  |  | 

Continued, in another order:

Row | LE TbNMT (ligand efficiency) [2] | IC50 ([2]; read-out: IC50 TbNMT) | EC50 [3] | IC50 [4] | IC50 ([2]; IC50 TbNMT) | improvement in potency at TbNMT ([2]; relative to parent/starting compound) | SMILES | EC50 [1]
26 | 0.37 | 6.4 µM |  | > 100 µM |  |  | Cc1cc(CN2C(=O)COc3cc(Br)ccc32)no1 [Compound 37, 7-Bromo-4-((5-methylisoxazol-3-yl)methyl)-2H-benzo[b][1,4]oxazin-3(4H)-one] | 
27 |  |  | 0.15 µM |  |  |  | Cc1cc(CN2C(=O)COc3cc(CCCOC4CCNCC4)ccc32)no1 [Compound 43, 4-((5-Methylisoxazol-3-yl)methyl)-7-(3-(piperidin-4-yloxy)propyl)-2H-benzo[b][1,4]oxazin-3(4H)-one] | 22 µM
28 |  | > 100 µM |  | > 100 µM |  |  | Cc1cc(CN2C(=O)C(C)Oc3ccccc32)no1 (stereo not drawn) [Compound 34, 2-Methyl-4-((5-methylisoxazol-3-yl)methyl)-2H-benzo[b][1,4]oxazin-3(4H)-one] | 
29 | 0.40 | 7 µM |  | > 100 µM |  |  | Cc1nc(CN2C(=O)COc3ccccc32)no1 [Compound 28, 4-((5-Methyl-1,2,4-oxadiazol-3-yl)methyl)-2H-benzo[b][1,4]oxazin-3(4H)-one] | 
30 | 0.31 | 41 µM |  | 69 µM |  |  | Cc1cccc(CN2C(=O)COc3ccccc32)n1 [Compound 31, 4-((6-Methylpyridin-2-yl)methyl)-2H-benzo[b][1,4]oxazin-3(4H)-one] | 
31 | 0.37 | 7.1 µM |  | > 100 µM |  |  | Cc1cc(CN2C(=O)COc3cc(Cl)ccc32)no1 [Compound 36, 7-Chloro-4-((5-methylisoxazol-3-yl)methyl)-2H-benzo[b][1,4]oxazin-3(4H)-one] | 
32 |  | > 100 µM |  | > 100 µM |  |  | Cc1cc(CN2C(=O)COc3ccc(Cl)cc32)no1 [Compound 35, 6-Chloro-4-((5-methylisoxazol-3-yl)methyl)-2H-benzo[b][1,4]oxazin-3(4H)-one] | 
33 | 0.37 | 11 µM |  | > 100 µM |  |  | Cc1cc(CN2C(=O)COc3c(Br)cccc32)no1 [Compound 38, 8-Bromo-4-((5-methylisoxazol-3-yl)methyl)-2H-benzo[b][1,4]oxazin-3(4H)-one] | 
34 | 0.34 | 9 µM |  | 30 µM |  |  | CC(C)Cc1cc(CN2C(=O)COc3ccccc32)no1 [Compound 30, 4-((5-Isobutylisoxazol-3-yl)methyl)-2H-benzo[b][1,4]oxazin-3(4H)-one] | 
35 |  | 80 µM |  | > 100 µM |  |  | Cn1ccc(CN2C(=O)COc3ccccc32)n1 [Compound 32, 4-((1-Methyl-1H-pyrazol-3-yl)methyl)-2H-benzo[b][1,4]oxazin-3(4H)-one] | 
36 | 0.32 | 18 µM |  | > 100 µM |  |  | CC(C)Cc1nc(CN2C(=O)COc3ccccc32)no1 [Compound 29, 4-((5-Isobutyl-1,2,4-oxadiazol-3-yl)methyl)-2H-benzo[b][1,4]oxazin-3(4H)-one] | 
